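Protocol summary: plate cells (96-well), add compound at 5 concentrations, incubate 48 h, interpolate endpoints linearly. GI50 is the concentration that inhibits growth by half. At the TGI there is no net growth.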
Experiments:
Experiment in all cases: NCI anticancer screen, dose series, 48 h
SK-MEL-2 melanoma = system: SK-MEL-2 melanoma
MALME-3M melanoma = system: MALME-3M melanoma
K-562 leukemia = system: K-562 leukemia
A498 renal = system: A498 renal
UO-31 renal = system: UO-31 renal
NCI-H226 lung = system: NCI-H226 lung
RXF 393 renal = system: RXF 393 renal
T-47D breast = system: T-47D breast
TK-10 renal = system: TK-10 renal
HT29 colon = system: HT29 colon
RPMI-8226 leukemia = system: RPMI-8226 leukemia
HCT-15 colon = system: HCT-15 colon
SK-OV-3 ovarian = system: SK-OV-3 ovarian
SW-620 colon = system: SW-620 colon
SF-295 CNS = system: SF-295 CNS
BT-549 breast = system: BT-549 breast
SK-MEL-28 melanoma = system: SK-MEL-28 melanoma
NCI-H23 lung = system: NCI-H23 lung
MCF7 breast = system: MCF7 breast
OVCAR-4 ovarian = system: OVCAR-4 ovarian
CAKI-1 renal = system: CAKI-1 renal
LOX IMVI melanoma = system: LOX IMVI melanoma
HS 578T breast = system: HS 578T breast
786-0 renal = system: 786-0 renal
DU-145 prostate = system: DU-145 prostate
PC-3 prostate = system: PC-3 prostate
SN12C renal = system: SN12C renal
SK-MEL-5 melanoma = system: SK-MEL-5 melanoma

Nc1c(C(=O)Nc2cccc(C(F)(F)F)c2)sc2nc3c(cc12)CCCCCC3 was tested. Which TGI (SK-MEL-2 melanoma) did it give?
Its TGI is 18.2 µM.

And the GI50 (MALME-3M melanoma)?
The GI50 was 3.54 µM.

And the TGI (MALME-3M melanoma)?
The TGI was 11.3 µM.

And the GI50 (K-562 leukemia)?
The GI50 was 3.65 µM.

And the TGI (K-562 leukemia)?
The TGI was 20 µM.

And the GI50 (A498 renal)?
The GI50 was 1.39 µM.

What about the TGI (A498 renal) of the same molecule?
The TGI was 5.51 µM.

And the GI50 (UO-31 renal)?
The GI50 was 2.18 µM.

What about the TGI (UO-31 renal) of the same molecule?
Its TGI is 8.57 µM.

And the GI50 (NCI-H226 lung)?
The GI50 was 1.76 µM.

And the TGI (NCI-H226 lung)?
The TGI was 11.9 µM.

And the GI50 (RXF 393 renal)?
The GI50 was 1.63 µM.

What about the TGI (RXF 393 renal) of the same molecule?
Its TGI is 3.21 µM.

What about the GI50 (T-47D breast) of the same molecule?
The GI50 was 1.35 µM.

What about the TGI (T-47D breast) of the same molecule?
Its TGI is 6.2 µM.

What about the GI50 (TK-10 renal) of the same molecule?
The GI50 was 2.18 µM.

And the TGI (TK-10 renal)?
The TGI was 5.82 µM.

What about the GI50 (HT29 colon) of the same molecule?
The GI50 was 3.24 µM.

What about the TGI (HT29 colon) of the same molecule?
Its TGI is 32.4 µM.

And the GI50 (RPMI-8226 leukemia)?
The GI50 was 2.96 µM.

What about the TGI (RPMI-8226 leukemia) of the same molecule?
The TGI was 17.5 µM.

And the GI50 (HCT-15 colon)?
The GI50 was 2.63 µM.

And the TGI (HCT-15 colon)?
Its TGI is 15.3 µM.

What about the GI50 (SK-OV-3 ovarian) of the same molecule?
The GI50 was 2.26 µM.

And the TGI (SK-OV-3 ovarian)?
The TGI was 6.29 µM.

What about the GI50 (SW-620 colon) of the same molecule?
Its GI50 is 3.75 µM.

What about the TGI (SW-620 colon) of the same molecule?
Its TGI is 21.2 µM.

And the GI50 (SF-295 CNS)?
The GI50 was 1.58 µM.

And the TGI (SF-295 CNS)?
Its TGI is 3.6 µM.

And the GI50 (BT-549 breast)?
Its GI50 is 2.54 µM.

And the TGI (BT-549 breast)?
Its TGI is 9.59 µM.

And the GI50 (SK-MEL-28 melanoma)?
The GI50 was 3.36 µM.

And the TGI (SK-MEL-28 melanoma)?
The TGI was 15.9 µM.

What about the GI50 (NCI-H23 lung) of the same molecule?
The GI50 was 2.39 µM.

What about the TGI (NCI-H23 lung) of the same molecule?
The TGI was 10.6 µM.

What about the GI50 (MCF7 breast) of the same molecule?
Its GI50 is 2.44 µM.

And the TGI (MCF7 breast)?
Its TGI is 11.2 µM.

And the GI50 (OVCAR-4 ovarian)?
The GI50 was 1.61 µM.

And the TGI (OVCAR-4 ovarian)?
The TGI was 4 µM.

What about the GI50 (CAKI-1 renal) of the same molecule?
Its GI50 is 2.49 µM.

What about the TGI (CAKI-1 renal) of the same molecule?
Its TGI is 10.2 µM.

And the GI50 (LOX IMVI melanoma)?
Its GI50 is 3.04 µM.

And the TGI (LOX IMVI melanoma)?
The TGI was 11.2 µM.

And the GI50 (HS 578T breast)?
Its GI50 is 3.25 µM.

What about the TGI (HS 578T breast) of the same molecule?
Its TGI is 9.92 µM.

And the GI50 (786-0 renal)?
Its GI50 is 1.6 µM.

What about the TGI (786-0 renal) of the same molecule?
Its TGI is 3.12 µM.

And the GI50 (DU-145 prostate)?
The GI50 was 2.65 µM.

What about the TGI (DU-145 prostate) of the same molecule?
The TGI was 10.2 µM.

And the GI50 (PC-3 prostate)?
Its GI50 is 4.31 µM.

What about the TGI (PC-3 prostate) of the same molecule?
The TGI was 32.7 µM.

And the GI50 (SN12C renal)?
The GI50 was 3.15 µM.

What about the TGI (SN12C renal) of the same molecule?
The TGI was 13 µM.

What about the GI50 (SK-MEL-5 melanoma) of the same molecule?
The GI50 was 2.15 µM.

And the TGI (SK-MEL-5 melanoma)?
Its TGI is 15 µM.

Reference: PubChem BioAssay (NCI)
